system: HIV-1 LTR-III G-quadruplex (FAM/TAMRA-labeled LTR-III); assay: FRET melting assay, LTR-III G4; format: binding; settings: Table S1 primary screening, ligand:ODN 50:1, singlicate
Description: To evaluate stabilizing properties of the ligands in a complex with oligodeoxyribonucleotides (ODNs) melting with fluorescence registration was used. ODN (0.5 μM) (Table 1), labeled with 6-carboxyfluorescein (FAM) and 6-carboxytetramethylrhodamine (TAMRA) at the 5′- and 3′-end, respectively, were folded in lithium cacodylate buffer (10 mM, pH 7.4) with 100 mM KCl by heating at 95 °C for 5 min and gradually cooling to r.t. GFP chromophore analogs (5 mM solution in DMSO) were diluted with the same buffer to the final concentration of 25 μM and mixed with an equal volume of 0.5 μM ODN solution resulting in a molar ratio of 50:1 (total volume was 50 μL). For the titration experiments molar ratios of 20:1 and 2:1 were used. Samples were analyzed using DTprime qPCR system (DNA-Technology LLC, Moscow, Russia). Fluorescence was registered by detection of FAM emission at 520 nm upon excitation at 495 nm in the temperature range of 30–95 °C with 1 °C/min gradient. Tm was determined using the instrument software and ΔTm was calculated relative to ODN Tm in a buffer solution containing 0.25% (v/v) DMSO. The primary and secondary screening were carried out in singlicate and triplicate, respectively.

| SMILES | LTR-III ΔTm [°C] |
| --- | --- |
| CCn1nnc2c(Nc3ccccc3)cccc2c1=O [M 958A] | -0.7 |
| CN(C)C=CC1=NC(=Cc2ccc(O)cc2)C(=O)N1C [M 995a] | 0.1 |
| CN1C(=O)C(=Cc2ccc(O)cc2)N=C1C=Cc1ccccc1 [M 996a] | 0.1 |
| CC(=O)Oc1ccc(C=C2N=C(C=Cc3ccccc3)N(C)C2=O)cc1 [M 1009A] | 0.5 |
| CC(=O)Oc1ccc(C=C2N=C(C=Cc3ccncc3)N(C)C2=O)cc1 [M 1009B] | 0.5 |
| CCN(CC)c1ccc(C=C2N=C(C)NC2=O)cc1 [M 1045] | 0.1 |
| CN(C)c1ccc(C(O)(c2ccc(N(C)C)cc2)c2ccccn2)cc1 [M 1122] | -0.6 |
| COc1ccc(C(O)(c2ccccc2)c2ccccn2)cc1 (stereo not drawn) [M 1136] | -0.7 |
| CC1=CC(C)(C)N(C)c2ccc(C=C3N=C(C)N(C)C3=O)cc21 [M 1152] | 0.6 |
| CNc1ccc(C=C2N=C(C)N(C)C2=O)cc1N [M 1165] | 0.9 |
| Oc1cccc2nc3ccccc3nc12 [M 1255] | -0.6 |
| CC1=NC(=Cc2cccc([N+](=O)[O-])c2)C(=O)N1C [M 1257] | -0.9 |
| CC1=NC(=Cc2cccc(O)c2)C(=O)N1C [M 1300] | 0.2 |
| CCOC(=O)CN1C(=O)C(=Cc2cc3c4c(c2)CCCN4CCC3)N=C1C [M 1343] | 0 |
| CCOC(=O)/C=C/c1ccc(O[Si](c2ccccc2)(c2ccccc2)C(C)(C)C)cc1 [M 1352] | -0.5 |
| CC(C)(C)[Si](Oc1ccc(/C=C/CO)cc1)(c1ccccc1)c1ccccc1 [M 1359] | 0.1 |
| COc1ccc2cc(C(c3ccc(C)cc3)C(c3ccc(C)cc3)c3ccc4cc(OC)ccc4c3)ccc2c1 (stereo not drawn) [M 1362.2] | -0.6 |
| CC(C)(C)[Si](Oc1ccc(C=CC=O)cc1)(c1ccccc1)c1ccccc1 [M 1373.2] | -0.5 |
| CC1=NC(=CC=Cc2ccc(O)cc2)C(=O)N1C [M 1378] | -0.7 |
| CCN1C(=O)C(=CC=Cc2ccc(O)cc2)N=C1C [M 1379.2] | -0.2 |

| SMILES | LTR-III ΔTm [°C] |
| --- | --- |
| CCC1=NC(=Cc2ccc(O[Si](c3ccccc3)(c3ccccc3)C(C)(C)C)cc2)C(=O)N1O[Si](c1ccccc1)(c1ccccc1)C(C)(C)C [M 1505] | -0.3 |
| CCCC1=NC(=Cc2ccc(O[Si](c3ccccc3)(c3ccccc3)C(C)(C)C)cc2)C(=O)N1C [M 1550] | -0.1 |
| CCC1=NC(=Cc2ccc(O[Si](c3ccccc3)(c3ccccc3)C(C)(C)C)cc2)C(=O)N1C [M 1557] | -0.1 |
| CC1=NC(=Cc2ccco2)C(=O)N1C [M 1583.2] | -0.5 |
| CC1=NC(=Cc2cccs2)C(=O)N1C [M 1583.3] | 0.1 |
| CC1=NC(=Cc2ccccc2O)C(=O)N1C [M 1583.4] | 0.2 |
| COc1ccccc1C=C1N=C(C)N(C)C1=O [M 1583.5] | 0.1 |
| COc1ccc(/C=C2\N=C(C)N(C)C2=O)cc1OC [M 1583.6] | 0 |
| CC1=NC(=Cc2ccc(O)c(O)c2)C(=O)N1C [M 1583.7] | -1.4 |
| CC1=N/C(=C\c2ccccc2O[Si](c2ccccc2)(c2ccccc2)C(C)(C)C)C(=O)N1C [M 1586] | -0.3 |
| CCCCN(CCCC)c1cccc(C=C2N=C(C)N(C)C2=O)c1 [M 1600] | -0.4 |
| CC1=NC(=Cc2ccc(O[Si](c3ccccc3)(c3ccccc3)C(C)(C)C)c(O)c2)C(=O)N1C [M 1620] | 0.4 |
| CCN(CC)c1ccc(C=C2N=C(C)N(C)C2=O)cc1 [M 1661] | 0.4 |
| Br.CC1=NC(=Cc2ccc(N(C)C)cc2)C(=O)N1CCN [M 1668] | 0.2 |
| CCN(CC)c1ccc(C=C2N=C(C(C)=O)N(C)C2=O)cc1 [M 1706] | -0.4 |
| COc1ccc(C=C2N=C(C)N(C)C2=O)cc1 [M 1814] | -0.3 |
| CCOC(=O)CN1C(=O)C(=Cc2ccc(O)cc2)N=C1C [M 1831.1] | -0.2 |
| CCCC1=NC(=C(N)c2ccccc2)C(=O)N1 [M 1862] | -1.1 |
| CCCC1=NC(=C(NB(F)F)c2ccccc2)C(=O)N1 [M 1878.1] | -1.5 |
| CCN(CC)c1ccc(/C=C2\N=C(C)N(C)C2=O)c(O)c1 [M 1933] | -0.3 |

| SMILES | LTR-III ΔTm [°C] |
| --- | --- |
| COc1ccc(C=C2N=C(Nc3ccccc3)N(C)C2=O)cc1 [M 1944b] | -0.3 |
| CCCC1=NC(=CN(C)C)C(=O)N1C [M 1945.1] | -0.6 |
| CCN(CC)c1ccc(C=C2N=C(C=Cc3ccc(OC)cc3)N(C)C2=O)c(B(F)F)c1 [M 1971a] | -0.3 |
| CCN(CC)c1ccc(C=C2N=C(C=CC=Cc3ccc(OC)cc3)N(C)C2=O)c(B(F)F)c1 [M 1971c] | 0.6 |
| CC1=NC(=Cc2c[nH]c3cccc(C)c23)C(=O)N1C [M 1974] | 0 |
| CC(=O)C1=N/C(=C\c2c[nH]c3ccccc23)C(=O)N1C [M 1975] | -0.6 |
| CCC(=O)n1cc(C=C2N=C(CC)OC2=O)c2c(C)cccc21 [M 1977] | 0 |
| CCC1=NC(=Cc2c[nH]c3cccc(C)c23)C(=O)N1C [M 1978] | -0.1 |
| CCC(=O)NC(=Cc1c[nH]c2cccc(C)c12)C(=O)NC [M 1979] | -0.1 |
| CC(=O)C1=NC(=Cc2c[nH]c3cccc(C)c23)C(=O)N1C [M 1981] | 1.7 |
| CC1=NC(=Cc2ccncc2)C(=O)N1C [M 1998] | -0.4 |
| CC1=NC(=Cc2ccc(N(C)C)cc2)C(=O)N1CCNC(=O)OC(C)(C)C [M 2022a] | -0.2 |
| COc1ccc(C=C2N=C(C)N(CCNC(=O)OC(C)(C)C)C2=O)cc1 [M 2022b] | 0 |
| CC1=NC(=Cc2ccccc2)C(=O)N1CCNC(=O)OC(C)(C)C [M 2022d] | -0.3 |
| COc1ccc(C=C2N=C(C)N(CCNC(=O)OC(C)(C)C)C2=O)cc1OC [M 2022e] | 0 |
| CCN(CC)c1ccc(C=C2N=C(C)N(CCNC(=O)OC(C)(C)C)C2=O)cc1 [M 2026c] | 0.2 |
| COc1cccc(C=C2N=C(C)N(CCNC(=O)OC(C)(C)C)C2=O)c1 [M 2026f] | -0.4 |
| COc1ccc(C=C2C(=O)N(C)C(C)=[N+]2C)cc1.O=S(=O)([O-])C(F)(F)F [M 2060] | -0.2 |
| CCN(CC)C(=S)Oc1ccc(C=C2N=C(c3ccccc3)N(C)C2=O)cc1 [M 2069] | -0.4 |
| CCN(CC)C(=O)Sc1ccc(C=C2N=C(c3ccccc3)N(C)C2=O)cc1 [M 2075] | 0.3 |

Source: paper PMC8533149 (Biomolecules, 2021)
